The subject of this test is spinach variety (Bloomsdale Long-Standing). The test can be described thus: Zinc uptake in spinach plants from application of fertilizer containing animal nutrient core packet (8-kg pot test). It is filed as in vivo. As to conditions: Soil applied Zn nutrient core product. How it is done:
In this example tests were performed to quantify the incorporation of zinc in a common spinach variety (Bloomsdale Long-Standing) employing compositions of the present invention. The tests quantified the increase in leaf zinc content due to application of compositions of the present invention containing zinc. The impact of the present compositions on spinach biomass increase was not the primary objective. In addition to applications of the present compositions to soil, for comparative purposes, foliar application of zinc solutions were applied to spinach leaves. Direct foliar applications provide an indication of potentially maximum amounts of zinc uptake into the leaves. 1. Soil • 8 kg Greenville loam (fine, kaolinitic, thermic Rhodie Kandiudults), pH=6.2, organic matter=1.4%, CEC=5.2 cmol kg^−1. The soil has been depleted of nutrients by previous cropping of tomatoes and cabbage. 2. Experimental Units • The spinach was grown in 8-kg pots. Each pot was transplanted with two spinach seedlings on Mar. 5, 2010 3. Blanket Fertilizer Rates—Basal • All fertilizer materials were laboratory grade reagents to avoid contamination and antagonistic interaction with Zn, Fe and/or I. • Nitrogen: 250 mg N kg^−1 or 2 g N por^−1. […] Crop Data Analysis • The fresh and dried weight of spinach leaves was determined and analyzed for N, P, K, Zn, Fe and I. [table]

Consider `O=C([O-])CN(CCN(CC(=O)[O-])CC(=O)[O-])CC(=O)[O-].[Na+].[Na+].[Zn+2]` [Zinc EDTA], for which the “effectiveness as Zn source in the nutrient core in increasing Zn tissue content in spinach” value is reported as “more effective than ZnSO4”.

The values above are taken from patent US11814327B2, “Fertilizers containing animal nutrient core packet” (Pursell Agri-Tech, LLC, priority 2010, dated 2023).
